According to patent US6713051B2, “Antiperspirant or deodorant compositions” (Unilever Home & Personal Care USA division of Conopco, Inc., priority 2001, dated 2004):

How the values were obtained:
Format in all cases: cell-based
[1] = target: T1, human PPARα (Homo sapiens, UniProt Q07869); assay: PPARα reporter gene assay (firefly luciferase, transiently transfected Cos-7 cells); settings: for Result (superior activity class achieved): class reached; for Pass at (lowest tested administration level at which the test material passed): pass = activation greater than oleic acid at 100 μM, commonly >1.57 times vehicle control, 24 h treatment
T1 construct: The coding region of a human PPARα cDNA was inserted downstream of the CMV promoter; expressed in transfected cells; host or cells: Cos-7 cells, transient transfection (pcDNA3.1(−)-PPARα, pRSV-RXRα, 3xPPRE-TK-luc reporter, pRL-TK)
T1 sequence (Q07869 1-468): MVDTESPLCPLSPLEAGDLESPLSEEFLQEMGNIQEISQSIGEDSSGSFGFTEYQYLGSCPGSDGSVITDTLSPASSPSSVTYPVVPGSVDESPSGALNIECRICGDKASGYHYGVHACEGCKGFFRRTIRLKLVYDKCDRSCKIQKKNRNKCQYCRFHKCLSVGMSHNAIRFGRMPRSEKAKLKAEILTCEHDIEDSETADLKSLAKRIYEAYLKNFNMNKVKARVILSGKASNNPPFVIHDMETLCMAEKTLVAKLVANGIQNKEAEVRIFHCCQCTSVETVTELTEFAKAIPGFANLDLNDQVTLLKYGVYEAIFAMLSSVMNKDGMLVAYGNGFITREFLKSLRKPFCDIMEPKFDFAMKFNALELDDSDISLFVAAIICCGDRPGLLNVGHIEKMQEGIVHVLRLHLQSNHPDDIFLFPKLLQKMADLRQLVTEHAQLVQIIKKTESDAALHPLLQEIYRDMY
T1 sequence (P19793 1-462 partner): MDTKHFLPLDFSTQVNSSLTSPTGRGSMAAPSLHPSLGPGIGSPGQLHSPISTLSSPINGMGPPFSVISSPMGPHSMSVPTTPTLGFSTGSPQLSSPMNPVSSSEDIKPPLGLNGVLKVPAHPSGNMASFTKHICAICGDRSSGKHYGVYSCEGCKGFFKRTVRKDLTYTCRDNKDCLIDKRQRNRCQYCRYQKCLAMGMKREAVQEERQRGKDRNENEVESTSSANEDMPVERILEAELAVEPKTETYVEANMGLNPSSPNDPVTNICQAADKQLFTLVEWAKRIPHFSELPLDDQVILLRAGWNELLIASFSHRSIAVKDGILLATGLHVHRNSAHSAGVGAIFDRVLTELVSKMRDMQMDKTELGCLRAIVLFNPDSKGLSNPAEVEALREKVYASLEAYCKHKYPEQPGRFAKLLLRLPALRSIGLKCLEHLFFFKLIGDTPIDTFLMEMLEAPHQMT
Source text: One convenient reporter assay for determining whether a fatty acid material is PPARα activating is based upon the firefly luciferase gene.
Fatty acids were screened to identify PPAR activating fatty acids using a reporter assay.
This assay relied on ligands binding to and activating the PPARα protein, which, in turn, activated genes under the control of PPAR response elements (PPRE). In the assay, the firefly luciferase gene was cloned behind a promoter containing 3 copies of the fatty acid binding protein PPRE.
The assay was performed by transient transfection of Cos-7 cells with a mixture of four DNA plasmids. These were:
1) PPAR reporter gene construct (Modified pNF-KB-luc reporter vector (Firefly luciferase reporter vector commercially available form Clontech (NF-kB response element, TK minimal promoter, luc^+, f1 origin, pUC origin, amp^r)). A tandem repeat of 3 PPAR response elements (PPREs) corresponding to the PPRE found in the fatty acid binding protein promoter was inserted upstream of the minimal TK promoter to replace the NF-κB response element);
2) 2) Over-expressing PPARα construct (Modified pcDNA3.1(−) vector (A mammalian expression vector commercially available from Invitrogen (CMV promoter, f1 origin, SV40 origin, ColE1 origin, neo^r, amp^r)). The coding region of a human PPARα cDNA was inserted downstream of the CMV promoter of pcDNA3.1 (−)). […] The coding region of a human RXRα cDNA has been inserted downstream of the RSV promoter. (Gift of V. K. K. Chatterjee, Addenbrooke's Hospital, Cambridge)) 4) Control luciferase construct (pRL-TK Renilla luciferase reporter vector commercially available from Promega (HSV-TK promoter, T7 promoter, Rluc^+, ori, amp^r)). For the transfection, DNA was made up as a mix of PPAR reporter gene: PPARα: RXRα: control in the ratio 40:4:3:3.
Cos-7 cells were grown in Dulbecco's modified Eagle's Medium, also herein referred to as DMEM with 10% foetal calf serum, herein also referred to as FCS at 37° C., 5% CO2 to 80% confluency. Cells were then plated out in 24 well plates at 50,000 cells per well and incubated overnight in DMEM with 10% FCS at 37° C., 5% CO2. Cells were then transfected using the LipofectAMINE reagent (GibcoBRL). For each well 0.4 μg of DNA mix (in 25 μl of DMEM) was incubated with 1 μl LipofectAMINE (in 25 μl of DMEM) for 45 minutes. The mixture was then made up to 250 μl per well and added to the cells, which had been washed with 1 ml of DMEM. Cells were then incubated for 5 hours at 37° C., 5% CO2 and 250 μl DMEM with 10% SBCS (charcoal stripped bovine calf serum) added. Cells were incubated for 18 hours at 37° C., 5% CO2 before being treated with the appropriate compound/extract. Test compounds were made up as 1000× stocks (in DMSO or ethanol as appropriate) and diluted into DMEM with 10% SBCS (500 μl per well) immediately before being added to cells. Each treatment was performed in triplicate. The transfection mix was removed from the cells and replaced with the treatment mix, and incubated for 24 hours at 37° C., 5% CO2. Cells were washed with 1 ml of PBS (without calcium or magnesium) and then lysed with 100 μl per well of 1× Passive Lysis Buffer (as supplied with Promega Dual Luciferase assay kit). Lysis was allowed to continue for 15 minutes and then the lysate was assayed for Firefly and Renilla luciferase activity using the Promega Dual Luciferase assay kit. For the assay, 20 μl of lysate was taken and assayed as described in the kit instructions using a MLX microtiter™ plate luminometer (Dynex).
Firefly luciferase activity (PPAR driven) was normalised against the Renilla luciferase value for that well and the mean calculated for the three wells treated with the same agent. Activity was then expressed as fold activation over the vehicle (DMSO or ethanol) control values for that particular plate.

[2] = test system: interleukin-6 (IL-6); assay: Skin organotypic culture analysis: AP-induced IL-6 release into the medium; settings: for IL-6: 24 h, Nil 51.7, AP 118.8
Method: (§1) The cultures were then incubated at 37° C., 5% CO2, and 95% relative humidity (standard cell culture conditions) for 24 h. The culture medium was assayed for the pro-inflammatory cytokine interleukin-6 (IL-6) and after washing to remove the AP formulation, the viability of the culture was determined using the Thiazoyl blue (MTT) assay (Mosmann, T. J. Immunol. Methods 65, p55 (1983). IL-6 was determined using an Immunoassay (Quantikine, R&D systems).
In this Example, skin organotypic cultures (Epiderm™, MatTek, USA) were treated topically with the above-identified AP formulation and the trans-10-cis-12 conjugated linoleic acid (TC CLA) was introduced into the medium. The cultures were then incubated at 37° C., 5% CO2, and 95% relative humidity (standard cell culture conditions) for 24 h. The culture medium was assayed for the pro-inflammatory cytokine interleukin-6 (IL-6) and after washing to remove the AP formulation, the viability of the culture was determined by the method described in Example 2.
as §1, with “hours.” for “h.”, “MTT assay.” for “Thiazoyl blue (MTT) assay (Mosmann, T. J. Immunol. Methods 65, p55 (1983).”, “ELISA assay (R&D” for “Immunoassay (Quantikine, R&D”

[3] = test system: Human foreskin keratinocytes; assay: Keratinocyte cornified envelope assay; settings: for Cornified envelopes assay: 4 days, control (0 μM) 22831
Method: (§2) Human foreskin keratinocytes (passage 3) were seeded at 4000 cells/well in 96 well plates in Keratinocyte Growth Medium (abbreviated to KGM) containing 0.03 mM calcium and grown for 3 days at 37° C. The cells were then treated with PPAR ligands in KGM containing 0.03 mM calcium for 4 days prior to harvest. Stock solutions of PPAR ligands were dissolved in dimethylsulphoxide (DMSO) and diluted in KGM before adding to the cells. […] The harvested cells were washed 3× in phosphate buffered saline (PBS) and extracted in 1% Triton X100, 50 mM (tris[hydroxymethyl]aminomethane) (Tris) pH 8.0 plus protease inhibitors pepstatin and leupeptin (100 μl/well). The extract was assayed for DNA content using the Pico Green DNA assay (Molecular Probes, Inc.).
After Tris-triton extraction for TGase assay, the cells were extracted with 100 μl/well of 2% SDS, 20 mM DTT for 16 hours at 60° C. Once extracted the SDS suspension from each well was individually filtered through polyviylidenefluoride (PVDF) membrane (Immobilon-P™ Transfer Membrane, Millipore) which had been pre-blocked in Tris Buffered Saline (TBS) containing 0.5% (v/v) Tween 20, 0.5% using a Dot Blot TM Apparatus (Bio-Rad). Each sample was washed several times with TBS/Tween buffer before the membrane was removed from the apparatus, rinsed in distilled water and silver stained using silver stain kit (Bio-Rad). The stained dot blot membrane was scanned and analysed using Phoretix Array™ software.
Cultured keratinocytes were treated with pinoleic acid for 4 days. The cells were extracted with 2% SDS, 20 mM DTT and the cornified envelopes were quantified, after filtration using a PDVF membrane, by silver staining, as described above.

[4] = test system: Human foreskin keratinocytes; assay: Keratinocyte proliferation analysis (DNA content per well, Pico Green); settings: for DNA: 4 days, control (0 μM) 14.46
Method: as §2
Cultured keratinocytes were treated with cis-9-trans-11 conjugated linoleic acid (CT-CLA) for 4 days. The cells were extracted with Tris-1% Triton X100 and the DNA content per well was determine by the Pico Green assay in accordance with the above described procedure.

SMILES	Result at (lowest administration level at which super or MS activity was achieved) [1] [μm]	Result (superior activity class achieved) [1]	Pass at (lowest tested administration level at which the test material passed) [1] [μm]	also measured
CCCCC/C=C\C=C\CCCCCCCCC(=O)O [CLA (t10, c12), trans-10-cis-12 conjugated linoleic acid]	100	super (superior activity [super] (50% higher—at least 2.25 times PPARα activation))	50	AP-induced IL-6 release ([2]; 5 and 500 μM, Dunnet's test p<0.01): significantly decrease; IL-6 ([2]; Table 5: 5 μM in medium + AP): 59.6 pg/mL; IL-6 ([2]; Table 5: 500 μM in medium + AP): 57.1 pg/mL
CCCCC/C=C\C/C=C\CC/C=C\CCCC(=O)O [Pinolenic acid, pinolenic acid]			10	cornified envelope formation, statement ([3]; Example 8: 10 μM, 1 way ANOVA, p<0.05): significantly increase; Cornified envelopes assay ([3]; Table 9: 0.1 μM): 18828 arb. Units; Cornified envelopes assay ([3]; Table 9: 1 μM): 24860 arb. Units; Cornified envelopes assay ([3]; Table 9: 10 μM): 36579 arb. Units; keratinocyte DNA synthesis activity, statement ([4]; Example 11: 10 μM, 1 way ANOVA, p<0.05): significantly reduce; DNA ([4]; Table 12: 0.1 μM): 13.41 ng/well; DNA ([4]; Table 12: 1 μM): 12.95 ng/well; DNA ([4]; Table 12: 10 μM): 12.63 ng/well
CCC=CCC=CC/C=C\CCCCCCCCCC(=O)O [cis-11,14,17 eicosatrienoic acid]	100	MS (more superior activity [MS] (100% higher—at least 3 times PPARα activation))	100	
CCCCCC=CC/C=C\CCCCCCCCCC(=O)O [cis-11,14-eicosadienoic acid]	100	MS (more superior activity [MS] (100% higher—at least 3 times PPARα activation))	10	
CCC=CCC=CC/C=C\CCCCCCCCCCCC(=O)O [cis-13,16,19 docosatrienoic acid]			100	
CCCC/C=C\CCCCCCCCCCCC(=O)O [cis-13-octadecenoic acid]			50	
CC/C=C\CCCCCCCCCCCCCC(=O)O [cis-15-octadecanoic acid]			100	
CCCCCC/C=C/CCCCCCCCCC(=O)O [trans vaccenic acid]			10	
CCCCC/C=C/CCCCCCCCCCC(=O)O [trans-12-octadecenoic acid]			100	
